This is an account of results in ChEMBL document CHEMBL1140940, “Pyrido[2,3-d]pyrimidin-5-ones: a novel class of antiinflammatory macrophage colony-stimulating factor-1 receptor inhibitors” (J Med Chem, 2009).

For series [1], the target named is Insulin receptor (Homo sapiens, UniProt P06213). Nature of the series: Inhibition of IRKbeta by fluorescence polarization competition immunoassay.
A short description of series [2]: Half life in mouse at 10 mg/kg, po. It is filed as ADME, organism-based. The arrangement: dose 10 mg/kg, route oral. To be noted: in vivo.
Series [3] in a line: Cmax in dog at 10 mg/kg, po. The arrangement: dose 10 mg/kg, route oral. It is filed as ADME, organism-based, Canis lupus familiaris. To be noted: in vivo.
Series [4] relates to Rattus norvegicus. Nature of the series: Inhibition of ankle swelling in Freund's complete adjuvant-induced Lewis rat arthritis model at […], po twice daily administered on day 8 post adjuvant challenge measured on day 21 post adjuvant challenge relative to control. It is filed as functional. As to conditions: dose 0.33 mg/kg.
A short description of series [5]: Volume of distribution at steady state in dog at 2 mg/kg, iv. To be noted: in vivo, read-out: Vdss. The class given is ADME, organism-based, Canis lupus familiaris. Set-up: dose 2 mg/kg, route intravenous.
Series [6] concerns Rattus norvegicus. Nature of the series: Toxicity in rat assessed as tolerability at 40 mg/kg. Set-up: dose 40 mg/kg. As to conditions: in vivo. It is filed as organism-based.
The target in series [7] is T1, Receptor-type tyrosine-protein kinase FLT3 (Homo sapiens, UniProt P36888).
T1 sequence (P36888 whole entry): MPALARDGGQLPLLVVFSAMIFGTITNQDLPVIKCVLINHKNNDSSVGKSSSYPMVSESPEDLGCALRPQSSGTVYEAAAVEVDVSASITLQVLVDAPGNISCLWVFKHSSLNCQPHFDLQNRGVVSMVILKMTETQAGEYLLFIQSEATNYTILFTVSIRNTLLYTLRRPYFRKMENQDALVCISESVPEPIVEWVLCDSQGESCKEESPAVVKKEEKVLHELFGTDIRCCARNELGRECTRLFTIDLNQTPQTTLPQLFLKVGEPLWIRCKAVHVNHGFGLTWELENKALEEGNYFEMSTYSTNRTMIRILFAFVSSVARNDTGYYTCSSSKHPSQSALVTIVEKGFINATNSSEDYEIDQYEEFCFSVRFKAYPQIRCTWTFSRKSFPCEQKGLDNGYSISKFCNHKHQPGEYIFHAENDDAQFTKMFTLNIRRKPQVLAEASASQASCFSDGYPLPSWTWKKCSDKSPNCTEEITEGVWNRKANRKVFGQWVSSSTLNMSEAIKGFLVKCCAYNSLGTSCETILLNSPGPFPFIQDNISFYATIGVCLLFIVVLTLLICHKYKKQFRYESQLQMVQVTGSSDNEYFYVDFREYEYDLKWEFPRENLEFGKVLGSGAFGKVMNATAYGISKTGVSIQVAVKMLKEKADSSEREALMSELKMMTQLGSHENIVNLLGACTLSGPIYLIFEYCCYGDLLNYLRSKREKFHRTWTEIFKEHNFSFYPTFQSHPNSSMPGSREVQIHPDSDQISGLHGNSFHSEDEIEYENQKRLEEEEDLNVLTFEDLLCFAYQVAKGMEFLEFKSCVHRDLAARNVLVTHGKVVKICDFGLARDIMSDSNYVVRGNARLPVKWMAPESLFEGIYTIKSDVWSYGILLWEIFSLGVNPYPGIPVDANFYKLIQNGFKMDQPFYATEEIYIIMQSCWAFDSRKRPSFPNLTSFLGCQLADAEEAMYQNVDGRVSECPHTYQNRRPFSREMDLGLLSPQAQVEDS
Nature of the series: Inhibition of FLT3 by fluorescence polarization competition immunoassay.

The nature of series [8]: Clearance in mouse at 2 mg/kg, iv. It is filed as ADME, organism-based. The arrangement: dose 2 mg/kg, route intravenous. As to conditions: in vivo.
Series [9] can be described thus: Plasma concentration in Freund's complete adjuvant-induced Lewis rat arthritis model at 1 mg/kg, po twice daily administered on day 8 post adjuvant challenge measured 7 days after last dose. The class given is ADME, organism-based. The arrangement: dose 1 mg/kg, route oral.
A short description of series [10]: Volume of distribution at steady state in monkey at 2 mg/kg, iv. The class given is ADME, organism-based, Macaca mulatta. The arrangement: dose 2 mg/kg, route intravenous. As to conditions: rhesus monkey, in vivo, read-out: Vdss.
A short description of series [11]: Clearance in Sprague-Dawley rat at 2 mg/kg, iv. The arrangement: dose 2 mg/kg, route intravenous. To be noted: in vivo. The class given is ADME, organism-based.
A short description of series [12]: Volume of distribution at steady state in mouse at 2 mg/kg, iv. The class given is ADME, organism-based. The arrangement: dose 2 mg/kg, route intravenous. To be noted: in vivo, read-out: Vdss.
Series [13] concerns Rattus norvegicus. As to the kind of experiment: Reversal of ankle swelling in streptococcal cell wall-induced Lewis rat chronic arthritis model at 10 mg/kg, po twice daily administered on day 19 post streptococcal cell wall challenge. It is filed as functional, organism-based. The arrangement: dose 10 mg/kg.
Series [14] deals with Mus musculus. Nature of the series: Reduction of CSF1-induced increase in c-fos mRNA expression in B6C3F1 mouse at 3 mg/kg, po administered 6 hrs before CSF1 challenge measured 15 mins post CSF1 challenge relative to control. It is filed as functional. Set-up: scale not given: the % may be the effect or the level left.
For series [15], the system named is Rattus norvegicus. Nature of the series: Antiinflammatory effect in Freund's complete adjuvant-induced Lewis rat arthritis model assessed as prevention of bone erosion at 10 mg/kg, po twice daily administered on day 8 post adjuvant challenge measured on day 21 post adjuvant challenge relative to control. It is filed as functional, organism-based. Set-up: dose 10 mg/kg.

The source made the active and inactive calls. The calls are words filed in the database; no cut-off is given here.

Sequence of Insulin receptor (P06213 28-758 limits assumed): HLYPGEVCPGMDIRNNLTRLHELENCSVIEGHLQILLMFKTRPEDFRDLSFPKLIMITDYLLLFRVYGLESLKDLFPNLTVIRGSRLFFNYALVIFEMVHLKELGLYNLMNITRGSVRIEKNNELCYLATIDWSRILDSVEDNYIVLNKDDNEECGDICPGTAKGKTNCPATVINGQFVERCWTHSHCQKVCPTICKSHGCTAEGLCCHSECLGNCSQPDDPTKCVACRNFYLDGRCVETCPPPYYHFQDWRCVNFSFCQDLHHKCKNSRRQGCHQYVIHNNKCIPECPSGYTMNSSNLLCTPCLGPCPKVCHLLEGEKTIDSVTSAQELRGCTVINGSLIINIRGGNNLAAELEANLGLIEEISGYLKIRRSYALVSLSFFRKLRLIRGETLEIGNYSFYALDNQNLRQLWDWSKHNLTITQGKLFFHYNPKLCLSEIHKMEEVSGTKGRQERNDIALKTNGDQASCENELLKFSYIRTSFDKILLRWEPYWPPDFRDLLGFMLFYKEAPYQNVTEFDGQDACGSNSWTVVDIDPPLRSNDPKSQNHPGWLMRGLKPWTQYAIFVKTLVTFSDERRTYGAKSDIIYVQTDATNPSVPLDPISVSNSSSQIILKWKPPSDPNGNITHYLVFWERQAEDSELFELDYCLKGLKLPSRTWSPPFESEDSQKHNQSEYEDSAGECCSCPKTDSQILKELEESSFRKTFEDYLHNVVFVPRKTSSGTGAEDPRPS
Sequence of Insulin receptor (P06213 763-1382 limits assumed): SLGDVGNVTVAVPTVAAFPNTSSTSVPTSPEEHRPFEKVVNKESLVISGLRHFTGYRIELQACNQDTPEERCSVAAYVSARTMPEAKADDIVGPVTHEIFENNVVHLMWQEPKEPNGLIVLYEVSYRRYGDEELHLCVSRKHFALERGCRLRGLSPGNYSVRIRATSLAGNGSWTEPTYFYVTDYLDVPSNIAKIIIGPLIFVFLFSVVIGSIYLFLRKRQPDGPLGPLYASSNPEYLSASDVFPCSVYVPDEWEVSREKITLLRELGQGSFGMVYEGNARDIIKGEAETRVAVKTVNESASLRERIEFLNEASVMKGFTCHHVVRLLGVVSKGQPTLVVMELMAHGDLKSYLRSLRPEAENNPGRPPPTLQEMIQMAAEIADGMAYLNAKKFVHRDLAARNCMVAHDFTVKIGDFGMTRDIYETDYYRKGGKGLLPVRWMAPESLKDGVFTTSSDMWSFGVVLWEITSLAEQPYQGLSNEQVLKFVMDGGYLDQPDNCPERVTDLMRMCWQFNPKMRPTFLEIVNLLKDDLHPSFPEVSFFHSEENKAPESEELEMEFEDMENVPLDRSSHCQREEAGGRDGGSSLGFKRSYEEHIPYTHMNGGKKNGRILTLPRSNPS

`CONC(=O)c1cn(-c2ccc3c(c2)CCC3)c2nc(Nc3ccc(C4CCN(C)CC4)cc3)ncc2c1=O`: the values for the concentration for half-maximal inhibition (IC50) in [1] and in series [7] were 3700 nM and 6 nM, respectively. Besides, the half-life in series [2] is 4 h. The same compound had a Cmax in [3] of 120 nM. Further, in series [4], the inhibition in vivo at […] is 7%. The Vd in [5] worked out at 20.3 L/kg; in [10] it was 22.6 L/kg; in series [12] it was 3.6 L/kg. For the same compound, the results for the Activity entry in series [6] and in series [14] were “Non-toxic” and 90%, respectively. Further, the clearance in series [8] worked out at 34 mL/min/kg; in series [11], 11 mL/min/kg. For the same compound, the concentration at 168 h in series [9] is 55 nM. For the same compound, the result in series [13] and in series [15] was Active.
